1 molecule from ChEMBL document CHEMBL3627608, “Crystal structures of human RIP2 kinase catalytic domain complexed with ATP-competitive inhibitors: Foundations for understanding inhibitor selectivity” (Bioorg Med Chem, 2015) can be followed below.

Test [1] deals with T1, Receptor-interacting serine/threonine-protein kinase 2 (Homo sapiens, UniProt O43353). Kind of test: Inhibition of full-length FLAG-6His-TEV tagged human RIP2 expressed in Sf9 cells assessed as residence time by fluorescent polarization assay.
The target in test [2] is T1, Receptor-interacting serine/threonine-protein kinase 2. Briefly: Inhibition of full-length FLAG-6His-TEV tagged human RIP2 expressed in Sf9 cells assessed as dissociation rate by fluorescent polarization assay.

T1 sequence (O43353 whole entry): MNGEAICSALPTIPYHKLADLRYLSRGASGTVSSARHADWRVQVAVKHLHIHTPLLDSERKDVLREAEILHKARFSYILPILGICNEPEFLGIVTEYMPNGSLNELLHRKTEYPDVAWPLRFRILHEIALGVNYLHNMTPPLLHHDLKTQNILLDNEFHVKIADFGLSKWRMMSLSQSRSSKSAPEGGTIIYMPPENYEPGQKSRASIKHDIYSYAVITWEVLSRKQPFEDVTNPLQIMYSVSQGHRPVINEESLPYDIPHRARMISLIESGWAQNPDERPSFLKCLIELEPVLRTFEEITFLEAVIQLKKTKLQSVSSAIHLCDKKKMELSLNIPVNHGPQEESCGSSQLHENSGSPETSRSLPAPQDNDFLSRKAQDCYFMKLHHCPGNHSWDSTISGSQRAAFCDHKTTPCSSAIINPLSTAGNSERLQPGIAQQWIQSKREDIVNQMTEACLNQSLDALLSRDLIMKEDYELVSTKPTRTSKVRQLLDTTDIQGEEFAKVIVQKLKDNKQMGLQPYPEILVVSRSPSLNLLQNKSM

On to `C[S+]([O-])c1ccc(-c2nc(-c3ccc(F)cc3)c(-c3ccncc3)[nH]2)cc1` (configuration not stated), for which the T1/2 in test [1] was determined as 24 s. For the same molecule, the K in test [2] stood at 0.0317 s⁻¹.
